{"source": "patent US20240270744A1", "about": "(Hoffmann-La Roche Inc., priority 2021, published 2024)", "key": {"[1]": {"molecular_target": "human GABAA α5β2γ1 receptor (Homo sapiens (Human), UniProt P31644+Q8N1C3)", "assay": "Radioligand binding assay, competition for [3H]RO7239181, γ1-containing GABAA subtypes", "settings": "Table 1; [3H]RO7239181 displacement, membranes from HEK293F cells, mean of two determinations"}, "[2]": {"molecular_target": "human GABAA α2β2γ1 receptor (Homo sapiens (Human), UniProt P47869+Q8N1C3)", "assay": "Radioligand binding assay, competition for [3H]RO7239181, γ1-containing GABAA subtypes", "settings": "for Ki: [3H]RO7239181 displacement"}, "[3]": {"molecular_target": "human GABAA α1β3γ2 receptor (Homo sapiens (Human), UniProt P14867+P18507)", "assay": "Radioligand binding assay, competition for [3H]Flumazenil, γ2-containing GABAA subtypes", "settings": "Table 1; [3H]Flumazenil displacement, HEK293F cells, mean of two determinations; read-out: Ki h-GABAA α1β3γ2", "how_it_was_run": "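Transiently transfected HEK293F cells expressing human α1β3γ2 receptors, prepared in Mannitol Buffer pH 7.2-7.4, competed for [3H]Flumazenil (81.1 Ci/mmol) binding. Incubation ran to equilibrium for 1 hour at 4 °C, followed by filtration and scintillation counting. Ki values are means of two determinations.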"}}, "data": [{"smiles": "C[C@@H]1N=C(c2c(F)cccc2F)c2c(cnc(C(F)(F)F)c2Cl)-n2nc(C(=O)NCC3(O)CC3)nc21", "note": "[Example 22, (7S)-11-chloro-9-(2,6-difluorophenyl)-N-[(1-hydroxycyclopropyl)methyl]-7-methyl-12-(trifluoromethyl)-2,3,5,8,13-pentazatricyclo[8.4.0.02,6]tetradeca-1(10),3,5,8,11,13-hexaene-4-carboxamide]", "values": [{"measurement": "Ki", "setting": "[1]", "value": 6.4, "unit": "nM"}, {"measurement": "Ki", "setting": "[2]; Ki h-GABAA α2β2γ1, Table 1, membranes from HEK293F cells, mean of two determinations", "value": 43.2, "unit": "nM"}, {"measurement": "Ki", "setting": "[2]; Ki h-GABAA α2β2γ1, Table 2", "value": 43.2, "unit": "nM"}, {"measurement": "γ2/γ1 Selectivity Ratio", "setting": "[2]; Table 1, Ki α1β3γ2 (nM)/Ki α2β2γ1 (nM)", "value": 245}, {"measurement": "LogSel", "setting": "[2]; Table 1, Log of the γ2/γ1 Ki ratio", "value": 2.39}, {"measurement": "Ki", "setting": "[3]", "value": 10600, "unit": "nM"}]}]}
